Experimental findings from patent US20230365584A1, “HETEROCYCLIC PERICONDENSED CDC7 KINASE INHIBITORS FOR THE TREATMENT OF CANCER” (SCHRÖDINGER, INC., priority 2020, published 2023) are described below.

For test [1], the target named is Full length human CDC7 protein co-expressed with DBF4 (Homo sapiens (Human), UniProt O00311). The test can be described thus: CDC7 kinase biochemical assay (ADP-Glo, PDKtide substrate). Conditions: 0.1 nM CDC7/DBF4, 1 uM ATP, 10 uM PDKtide, 4 h. The protocol: CDC7 Kinase Biochemical Assay Protocol:
Full length human CDC7 protein co-expressed with DBF4 was purchased from SignalChem (China). CDC7 kinase activity was determined with PDKtide (SignalChem) as a substrate and by measuring ADP production using the ADP-Glo™ Kinase Assay kit (Promega) following the manufacturers instructions. The kinase reaction was performed using the following conditions: Buffer: 40 mM Tris pH 7.5, 20 mM MgCl2, 0.1 mg/ml BSA and 50 uM DTT. Final reaction mix contained 0.1 nM CDC7/DBF4, 1 uM ATP and 10 uM PDKtide. The kinase reaction time was 4 h. The ADP-Glo signal was measured using an EnVision plate reader (PerkinELmer).
Percent inhibition of CDC7 kinase activity was calculated based on the following formula:
[formula] • Ssample: the signal of compounds • SHigh Ctrl: the signal of high control (DMSO) • SLow Ctrl: the signal of low control (positive control CDC7 inhibitor)
On the technique in general: ADP-Glo first removes unused ATP, then detects ADP through luciferase.

Test [2] has as its system phosphorylation of MCM2 S53 in colo205 cells. The test can be described thus: Phosphorylated MCM2 MSD electrochemiluminescence assay. It is filed as cell-based. Conditions: Homo sapiens, COLO 205, 20 h incubation, read-out: pMCM2-S53 MSD Colo205 IC50. The protocol:
Phosphorylated MCM2 MSD Electrochemiluminescence Assay
The effect of CDC7 inhibitors on cellular phosphorylation of the CDC7 substrate MCM2 was determined using the following protocol:
A total of 40,000 colo205 cells in 100 uL culture medium (1640 medium+10% Fetal bovine serum+1% Penicillin-Streptomycin) were plated in 96-well cell culture plates and allowed to attach for 6 hours. 3-fold serial dilutions of test compounds were prepared in completed PBS at 25×final concentration and 4 uL of each were added to the cells and incubated for 20 hours at 37° C., 5% CO2. Each concentration was tested in duplicate. After the 20 h incubation, cells were washed with 150 uL PBS and lysed with 40 uL MSD lysis buffer (obtained from Meso Scale Diagnostics) supplied with 1×complete ULTRA cocktail inhibitor (obtained from Roche). To detect phosphorylation of MCM2 S53, 30 μL of capture antibody solution (obtained from Abnova, catalog number H00004171-MO1, 1:500) was added to each well of MULTI-ARRAY 96-well High Bind Plate, and incubated overnight. The antibody solution was removed, wells blocked with BSA solution and plates washed, followed by addition of 30 ul of cell lysate per well. After 2 h incubation, plates were washed. 30 μL of 1×detection antibody solution (obtained from Abcam, catalog number ab109133, 1:1000) was then added to each well and incubate for 1 hour. Plates were washed and 30 μL of 1×secondary antibody solution (obtained from MSD, catalog number R32AB-1, 1:5000) was added to each well and incubate for 1 hour. Plates were washed and 150 µL of 1×Read Buffer T was added to each well of the MSD plate. The electrochemiluminescence signal was measured on a MESO SECTOR S600 plate reader. The percentage of remaining phosphorylated MCM2 signal was calculated following the equation below.
[formula] • HC (high control): Cells treated with DMSO • Cpds: Cells treated with test compounds • LC (low control): Cells treated with positive control CDC7 inhibitor

Structures are written as SMILES. Where only a bound is given, the exact number is not on record here.

Chain of Full length human CDC7 protein co-expressed with DBF4 (O00311 whole entry): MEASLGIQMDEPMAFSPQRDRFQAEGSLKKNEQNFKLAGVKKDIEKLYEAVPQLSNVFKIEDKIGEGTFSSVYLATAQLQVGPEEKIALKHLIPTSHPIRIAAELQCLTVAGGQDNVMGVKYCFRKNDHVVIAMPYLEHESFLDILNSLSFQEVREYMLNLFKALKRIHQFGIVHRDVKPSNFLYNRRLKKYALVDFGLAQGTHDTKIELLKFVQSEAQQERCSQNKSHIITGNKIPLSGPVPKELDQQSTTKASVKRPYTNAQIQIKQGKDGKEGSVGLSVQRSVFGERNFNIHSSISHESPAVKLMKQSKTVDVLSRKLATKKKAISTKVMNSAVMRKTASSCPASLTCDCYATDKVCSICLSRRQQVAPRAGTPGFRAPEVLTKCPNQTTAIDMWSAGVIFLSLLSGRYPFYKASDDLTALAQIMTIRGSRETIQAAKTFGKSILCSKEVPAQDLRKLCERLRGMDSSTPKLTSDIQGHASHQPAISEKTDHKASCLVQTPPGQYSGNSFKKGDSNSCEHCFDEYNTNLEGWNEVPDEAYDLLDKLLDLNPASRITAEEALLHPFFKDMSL
Chain of Full length human CDC7 protein co-expressed with DBF4 (Q9UBU7 whole entry partner): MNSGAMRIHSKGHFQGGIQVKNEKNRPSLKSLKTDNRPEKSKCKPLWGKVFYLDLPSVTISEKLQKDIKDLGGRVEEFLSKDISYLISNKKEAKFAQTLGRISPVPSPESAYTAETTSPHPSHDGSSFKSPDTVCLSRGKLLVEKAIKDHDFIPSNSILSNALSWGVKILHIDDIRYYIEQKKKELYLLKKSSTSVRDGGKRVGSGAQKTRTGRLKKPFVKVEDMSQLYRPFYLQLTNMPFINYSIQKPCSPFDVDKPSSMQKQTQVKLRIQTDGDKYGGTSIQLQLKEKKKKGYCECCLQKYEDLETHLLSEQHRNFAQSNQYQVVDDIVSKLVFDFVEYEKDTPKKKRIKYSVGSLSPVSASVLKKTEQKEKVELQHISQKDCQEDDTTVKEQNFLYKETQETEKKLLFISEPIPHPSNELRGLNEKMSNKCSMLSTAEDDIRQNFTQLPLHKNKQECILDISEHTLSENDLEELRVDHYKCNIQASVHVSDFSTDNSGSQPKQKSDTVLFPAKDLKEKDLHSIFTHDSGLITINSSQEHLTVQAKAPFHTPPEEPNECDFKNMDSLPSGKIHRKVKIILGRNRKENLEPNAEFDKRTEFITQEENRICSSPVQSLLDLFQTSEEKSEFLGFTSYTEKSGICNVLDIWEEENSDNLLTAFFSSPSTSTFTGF

Consider `CC[C@](C)(O)c1[nH]c(=O)c2sc(-c3cn[nH]c3)c3c2c1CCCO3` (single isomer, unassigned) [Example 57], for which the concentration for half-maximal inhibition (IC50) (commonly the midpoint of a concentration-inhibition curve) was less than 1 nM in test [1] and less than 100 nM in test [2].
The like results for `Cc1[nH]c(=O)c2sc(-c3ccncc3)c3c2c1CCCO3` [Example 1, 5-methyl-1-(pyridin-4-yl)-4,6,7,8-tetrahydro-3H-9-oxa-2-thia-4-azabenzo[cd]azulen-3-one] were, in that order, less than 1 nM and 100 to 1000 nM.
As for `O=C(c1[nH]c(=O)c2sc(-c3cn[nH]c3)c3c2c1CCCO3)N1CCCC1` [Example 51, 2-(1H-pyrazol-4-yl)-7-(pyrrolidine-1-carbonyl)-12-oxa-3-thia-6-azatricyclo[6.4.1.0^4,13]-trideca-1,4(13),7-trien-5-one], the half-maximal inhibitory concentration (IC50) in test [1] was 1 to 10 nM; in test [2], no less than 1000 nM.
For `O=c1[nH]c(COC2CCC2)c2c3c(c(-c4cn[nH]c4)sc13)OCCC2` [Example 55, 5-(cyclobutoxymethyl)-1-(1H-pyrazol-4-yl)-4,6,7,8-tetrahydro-3H-9-oxa-2-thia-4-azaben-zo[cd]azulen-3-one], in that order: less than 1 nM and less than 100 nM.
With `CC[C@@](C)(O)c1[nH]c(=O)c2sc(-c3cn[nH]c3)c3c2c1CCCO3` (single isomer, unassigned) [Example 58], the IC50 was less than 1 nM in test [1] and less than 100 nM in test [2].
With `C[C@@H](c1[nH]c(=O)c2sc(-c3cn[nH]c3)c3c2c1CCCO3)n1cccn1` (single isomer, unassigned) [Example 47], the concentration for half-maximal inhibition (IC50) in test [1] was less than 1 nM; in test [2] it was less than 100 nM.
For `CC(C)(O)c1[nH]c(=O)c2sc(-c3cn[nH]c3)c3c2c1CCCO3` [Example 28, 5-(2-hydroxypropan-2-yl)-1-(1H-pyrazol-4-yl)-4,6,7,8-tetrahydro-3H-9-oxa-2-thia-4-azabenzo[cd]azulen-3-one], the IC50 in test [1] is less than 1 nM; in test [2], less than 100 nM.
For the compound `O=c1[nH]c(CN2CCC2)c2c3c(c(-c4cn[nH]c4)sc13)OCC(F)(F)C2` [Example 44, 7-(azetidin-1-ylmethyl)-10,10-difluoro-2-(1H-pyrazol-4-yl)-12-oxa-3-thia-6-azatricyclo[6.4.1.0^4,13]trideca-1,4(13),7-trien-5-one], the IC50 in test [1] was less than 1 nM; in test [2], less than 100 nM.
Take `O=c1[nH]c(CN2CCC2)c2c3c(c(-c4cn[nH]c4)sc13)OCCC2` [Example 13, 5-(azetidin-1-ylmethyl)-1-(1H-pyrazol-4-yl)-4,6,7,8-tetrahydro-3H-9-oxa-2-thia-4-azabenzo[cd]azulen-3-one]: the IC50 in test [1] was less than 1 nM; in test [2], less than 100 nM.
The like results for `C[C@@H](c1[nH]c(=O)c2sc(-c3cn[nH]c3)c3c2c1CCCO3)N1CCC1` (single isomer, unassigned) [Example 30] were, in that order, less than 1 nM and less than 100 nM.
For `C[C@H](c1[nH]c(=O)c2sc(-c3cn[nH]c3)c3c2c1CCCO3)n1cccn1` (single isomer, unassigned) [Example 46], in that order: less than 1 nM and 100 to 1000 nM.
For `CC(C)NCc1[nH]c(=O)c2sc(-c3cn[nH]c3)c3c2c1CCCO3` [Example 24, 5-((isopropylamino)methyl)-1-(1H-pyrazol-4-yl)-4,6,7,8-tetrahydro-3H-9-oxa-2-thia-4-azabenzo[cd]azulen-3-one], the IC50 in test [1] is less than 1 nM; in test [2] it was 100 to 1000 nM.
As to `Cc1[nH]c(=O)c2sc(-c3ccncc3)c3c2c1C[C@@H](C)O3` (single isomer, unassigned) [Example 7], the values for the half-maximal inhibitory concentration (IC50) in test [1] and in test [2] were less than 1 nM and 100 to 1000 nM, respectively.
